Each structure is given as a SMILES string. Values after ≈ are worked out from the molar mass of the structure shown. Active and inactive are the calls of the source. The calls are words filed in the database; no cut-off is given here.

The first experiment has as its system Staphylococcus aureus. Kind of experiment: Microbiostatic activity against Staphylococcus aureus ATCC 25923 after 24 hr.
Details: not given
On to `Clc1ccccc1C(c1ccccc1)(c1ccccc1)n1ccnc1` [CLOTRIMAZOLE], for which the result was Active.
The same measure, in the same setting: next, `O=C1COc2ccc(Cl)cc2N1C1CCCCC1`: “Active”; `O=C1COc2cc(Cl)ccc2N1C1CCCCC1`: “Active”.
The same measure, in the same setting: next, `O=C1COc2cc(F)ccc2N1C1CCCCC1`: “Active”.
Regarding `O=C1COc2c(Cl)cccc2N1C1CCCCC1`, the outcome was Active.

The subject of a further experiment is Escherichia coli. Kind of experiment: Antimicrobial activity against Escherichia coli ATCC 25922 after 24 hr by two-fold serial dilution method. It is filed as functional. The note with it: ATCC 25922, 24 h.
Consider `Clc1ccccc1C(c1ccccc1)(c1ccccc1)n1ccnc1` [CLOTRIMAZOLE], for which it took 512 µg/mL (≈ 1480 µM) to inhibit growth (MIC).
The same measure, in the same setting: next, `O=C1COc2ccc(Cl)cc2N1C1CCCCC1`: 128 µg/mL (≈ 482 µM); `O=C1COc2cc(Cl)ccc2N1C1CCCCC1`: 32 µg/mL (≈ 120 µM).
Same read-out and setting: in the case of `O=C1COc2cc(F)ccc2N1C1CCCCC1` it was 16 µg/mL (≈ 64.2 µM); in that of `O=C1COc2c(Cl)cccc2N1C1CCCCC1`, 32 µg/mL (≈ 120 µM).

A further experiment relates to Pseudomonas aeruginosa. Kind of experiment: Microbiostatic activity against Pseudomonas aeruginosa ATCC 27853 after 24 hr.
Details: not given
Turning to `Clc1ccccc1C(c1ccccc1)(c1ccccc1)n1ccnc1` [CLOTRIMAZOLE], the result was Active.
The same measure, in the same setting: in the case of `O=C1COc2ccc(Cl)cc2N1C1CCCCC1` it was “Active”.
On to `O=C1COc2cc(Cl)ccc2N1C1CCCCC1`, for which the outcome was Active.
On the same count and under the same terms, in the case of `O=C1COc2cc(F)ccc2N1C1CCCCC1` it was “Active”; in that of `O=C1COc2c(Cl)cccc2N1C1CCCCC1`, “Active”.

The subject of a further experiment is Aspergillus flavus. Kind of experiment: Antimicrobial activity against Aspergillus flavus ATCC 10124 after 48 hr by two-foldserial dilution method. It is filed as functional. The following applies: ATCC 10124, 48 h.
Regarding `Clc1ccccc1C(c1ccccc1)(c1ccccc1)n1ccnc1` [CLOTRIMAZOLE], it took 2 µg/mL (≈ 5.8 µM) to inhibit growth (MIC).
The same measure, in the same setting: in the case of `O=C1COc2ccc(Cl)cc2N1C1CCCCC1` it was 32 µg/mL (≈ 120 µM); in that of `O=C1COc2cc(Cl)ccc2N1C1CCCCC1`, 128 µg/mL (≈ 482 µM).
Turning to `O=C1COc2cc(F)ccc2N1C1CCCCC1`, 64 µg/mL (≈ 257 µM) was the least that counted as inhibitory (MIC).
For the compound `O=C1COc2c(Cl)cccc2N1C1CCCCC1`, the MIC – broadly, the least concentration at which growth counts as inhibited – was 256 µg/mL (≈ 963 µM).

The subject of the next experiment is Aspergillus flavus. Kind of experiment: Microbiostatic activity against Aspergillus flavus ATCC 10124. In kind it is functional, organism-based.
Details: not given
With `Clc1ccccc1C(c1ccccc1)(c1ccccc1)n1ccnc1` [CLOTRIMAZOLE], the result was Active.
The same measure, in the same setting: in the case of `O=C1COc2ccc(Cl)cc2N1C1CCCCC1` it was “Active”; in that of `O=C1COc2cc(Cl)ccc2N1C1CCCCC1`, “Active”; in that of `O=C1COc2cc(F)ccc2N1C1CCCCC1`, “Active”.
Still for that read-out and setting: in the case of `O=C1COc2c(Cl)cccc2N1C1CCCCC1` it was “Active”.

The test system of another experiment is Candida albicans. Kind of experiment: Antimicrobial activity against Candida albicans ATCC 76615 after 48 hr by two-fold serial dilution method. The note with it: ATCC 76615, 48 h. It is filed as functional.
On to `Clc1ccccc1C(c1ccccc1)(c1ccccc1)n1ccnc1` [CLOTRIMAZOLE], for which the minimal inhibitory concentration (MIC) amounted to 2 µg/mL (≈ 5.8 µM).
On the same count and under the same terms, next, `O=C1COc2ccc(Cl)cc2N1C1CCCCC1`: 32 µg/mL (≈ 120 µM); `O=C1COc2cc(Cl)ccc2N1C1CCCCC1`: 256 µg/mL (≈ 963 µM); `O=C1COc2cc(F)ccc2N1C1CCCCC1`: 256 µg/mL (≈ 1030 µM).
On the same count and under the same terms, next, `O=C1COc2c(Cl)cccc2N1C1CCCCC1`: 128 µg/mL (≈ 482 µM).

The test system of a further experiment is Bacillus spizizenii. Kind of experiment: Antimicrobial activity against Bacillus subtilis subsp. spizizenii ATCC 6633 after 24 hr by two-fold serial dilution method. It is filed as functional. The note with it: ATCC 6633, 24 h.
For `Clc1ccccc1C(c1ccccc1)(c1ccccc1)n1ccnc1` [CLOTRIMAZOLE], the lowest concentration to inhibit growth (MIC) was 512 µg/mL (≈ 1480 µM).
On the same count and under the same terms, in the case of `O=C1COc2ccc(Cl)cc2N1C1CCCCC1` it was 32 µg/mL (≈ 120 µM); in that of `O=C1COc2cc(Cl)ccc2N1C1CCCCC1`, 64 µg/mL (≈ 241 µM); in that of `O=C1COc2cc(F)ccc2N1C1CCCCC1`, 32 µg/mL (≈ 128 µM).
On the same count and under the same terms, in the case of `O=C1COc2c(Cl)cccc2N1C1CCCCC1` it was 32 µg/mL (≈ 120 µM).

The next experiment concerns Bacillus spizizenii. Kind of experiment: Microbiostatic activity against Bacillus subtilis subsp. spizizenii ATCC 6633 after 24 hr.
Details: not given
Turning to `Clc1ccccc1C(c1ccccc1)(c1ccccc1)n1ccnc1` [CLOTRIMAZOLE], the outcome was Active.
On the same count and under the same terms, next, `O=C1COc2ccc(Cl)cc2N1C1CCCCC1`: “Active”; `O=C1COc2cc(Cl)ccc2N1C1CCCCC1`: “Active”; `O=C1COc2cc(F)ccc2N1C1CCCCC1`: “Active”.
Consider `O=C1COc2c(Cl)cccc2N1C1CCCCC1`, for which the result was Active.

In another experiment the test system is Proteus vulgaris. Kind of experiment: Microbiostatic activity against Proteus vulgaris ATCC 6896 after 24 hr.
Details: not given
Take `Clc1ccccc1C(c1ccccc1)(c1ccccc1)n1ccnc1` [CLOTRIMAZOLE]: the result was Active.
The same measure, in the same setting: in the case of `O=C1COc2ccc(Cl)cc2N1C1CCCCC1` it was “Active”.
Same read-out and setting: in the case of `O=C1COc2cc(Cl)ccc2N1C1CCCCC1` it was “Active”.
The same measure, in the same setting: in the case of `O=C1COc2cc(F)ccc2N1C1CCCCC1` it was “Active”; in that of `O=C1COc2c(Cl)cccc2N1C1CCCCC1`, “Active”.

The subject of another experiment is Pseudomonas aeruginosa. Kind of experiment: Antimicrobial activity against Pseudomonas aeruginosa ATCC 27853 after 24 hr by two-fold serial dilution method. In kind it is functional. The note with it: ATCC 27853, 24 h.
`Clc1ccccc1C(c1ccccc1)(c1ccccc1)n1ccnc1` [CLOTRIMAZOLE] returned an MIC of 512 µg/mL (≈ 1480 µM).
The same measure, in the same setting: next, `O=C1COc2ccc(Cl)cc2N1C1CCCCC1`: 64 µg/mL (≈ 241 µM); `O=C1COc2cc(Cl)ccc2N1C1CCCCC1`: 32 µg/mL (≈ 120 µM).
The same measure, in the same setting: in the case of `O=C1COc2cc(F)ccc2N1C1CCCCC1` it was 16 µg/mL (≈ 64.2 µM).
Same read-out and setting: next, `O=C1COc2c(Cl)cccc2N1C1CCCCC1`: 16 µg/mL (≈ 60.2 µM).

A further experiment has as its system Proteus vulgaris. Kind of experiment: Antimicrobial activity against Proteus vulgaris ATCC 6896 after 24 hr by two-fold serial dilution method. It is filed as functional. The note with it: ATCC 6896, 24 h.
In turn, `Clc1ccccc1C(c1ccccc1)(c1ccccc1)n1ccnc1` [CLOTRIMAZOLE] had an MIC of 512 µg/mL (≈ 1480 µM).
The same measure, in the same setting: next, `O=C1COc2ccc(Cl)cc2N1C1CCCCC1`: 16 µg/mL (≈ 60.2 µM); `O=C1COc2cc(Cl)ccc2N1C1CCCCC1`: 64 µg/mL (≈ 241 µM).
Still for that read-out and setting: in the case of `O=C1COc2cc(F)ccc2N1C1CCCCC1` it was 16 µg/mL (≈ 64.2 µM); in that of `O=C1COc2c(Cl)cccc2N1C1CCCCC1`, 32 µg/mL (≈ 120 µM).

Another experiment deals with Candida albicans. Kind of experiment: Microbiostatic activity against Candida albicans ATCC 76615. It is filed as functional, organism-based.
Details: not given
`Clc1ccccc1C(c1ccccc1)(c1ccccc1)n1ccnc1` [CLOTRIMAZOLE]: the result was Active.
Same read-out and setting: in the case of `O=C1COc2ccc(Cl)cc2N1C1CCCCC1` it was “Active”; in that of `O=C1COc2cc(Cl)ccc2N1C1CCCCC1`, “Active”; in that of `O=C1COc2cc(F)ccc2N1C1CCCCC1`, “Active”.
Still for that read-out and setting: next, `O=C1COc2c(Cl)cccc2N1C1CCCCC1`: “Active”.

The test system of the next experiment is Staphylococcus aureus. Kind of experiment: Antimicrobial activity against Staphylococcus aureus ATCC 25923 after 24 hr by two-fold serial dilution method. In kind it is functional. The following applies: ATCC 25923, 24 h.
On to `Clc1ccccc1C(c1ccccc1)(c1ccccc1)n1ccnc1` [CLOTRIMAZOLE], for which the MIC is 512 µg/mL (≈ 1480 µM).
The same measure, in the same setting: in the case of `O=C1COc2ccc(Cl)cc2N1C1CCCCC1` it was 128 µg/mL (≈ 482 µM); in that of `O=C1COc2cc(Cl)ccc2N1C1CCCCC1`, 64 µg/mL (≈ 241 µM); in that of `O=C1COc2cc(F)ccc2N1C1CCCCC1`, 16 µg/mL (≈ 64.2 µM).
Take `O=C1COc2c(Cl)cccc2N1C1CCCCC1`: the MIC worked out at 64 µg/mL (≈ 241 µM).

In another experiment the test system is Escherichia coli. Kind of experiment: Microbiostatic activity against Escherichia coli ATCC 25922 after […]. It is filed as functional, organism-based.
Details: not given
`Clc1ccccc1C(c1ccccc1)(c1ccccc1)n1ccnc1` [CLOTRIMAZOLE]: the result was Active.
Turning to `O=C1COc2ccc(Cl)cc2N1C1CCCCC1`, the result was Active.
Take `O=C1COc2cc(Cl)ccc2N1C1CCCCC1`: the result was Active.
With `O=C1COc2cc(F)ccc2N1C1CCCCC1`, the outcome was Active.
Same read-out and setting: in the case of `O=C1COc2c(Cl)cccc2N1C1CCCCC1` it was “Active”.

The values are drawn from ChEMBL document CHEMBL3046260, “Synthesis of benzo[b][1,4]oxazin-3(4H)-ones via smiles rearrangement for antimicrobial activity” (2011).
